Here are results for 2 compounds from patent publication US8048884B2, “Substituted piperazinyl pyrazines and pyridines as 5-HT7 receptor antagonists” (Eli Lilly and Company, priority 2007, dated 2011).

The target of assay [1] is T1, 5-HT7 receptor (Homo sapiens, UniProt P34969).
T1 construct: expressed in transfected cells
The experiment in a line: 5-HT7 receptor affinity: [3H]5-HT radioligand binding assay. The settings on record: [3H]5-HT competition, membranes of AV-12 cells. The protocol: Membranes for affinity and antagonist activity assays are prepared essentially as follows. AV-12 cells, stably expressing the 5-HT7 receptor, are grown as a monolayer in 5×T-150 flasks in DMEM/F12 (3:1) 5% FBS, 20 mM HEPES, […] geneticin, 50 mg/mL tobramycin. After growing to 90% confluence the media is removed and replaced with Hybritech media (a low calcium version of DMEM/F12 media having 11 mg/L calcium) containing 2% horse serum, […] dextran sulfate, 1 mg/mL nucellin, 1 mg/mL human transferrin (partially iron saturated), 50 mg/mL tobramycin, 20 mM HEPES, […] geneticin, 0.04% pluronic F68. The cells are grown overnight to condition the media. The next morning the conditioned media (−150 mL total) is removed and set aside in a sterile container. The cells are trypsinized and collected in the conditioned media. […]
To prepare membranes, the above pellets are resuspended in ice-cold Tris buffer (20 mM Tris HCl, pH 7.4 at 23° C., 5 mM EDTA) and homogenized with a Wheaton tissue grinder. […] Protein concentrations are determined by the method of Bradford. […]
(§1) [^3H] […] The reactions are incubated at room temperature for 3 hr. and then counted in a Trilux Microbeta™ scintillation counter to detect receptor-bound radioligand. Binding data is analyzed by computer-assisted 4 parameter fit analysis (ID Business Solutions Ltd, Guildford, Surrey, UK). […]

The target of a further assay is T2, 5-HT1A (Homo sapiens, UniProt P08908).
T2 construct: expressed in transfected cells
T2 sequence (P08908 1-422): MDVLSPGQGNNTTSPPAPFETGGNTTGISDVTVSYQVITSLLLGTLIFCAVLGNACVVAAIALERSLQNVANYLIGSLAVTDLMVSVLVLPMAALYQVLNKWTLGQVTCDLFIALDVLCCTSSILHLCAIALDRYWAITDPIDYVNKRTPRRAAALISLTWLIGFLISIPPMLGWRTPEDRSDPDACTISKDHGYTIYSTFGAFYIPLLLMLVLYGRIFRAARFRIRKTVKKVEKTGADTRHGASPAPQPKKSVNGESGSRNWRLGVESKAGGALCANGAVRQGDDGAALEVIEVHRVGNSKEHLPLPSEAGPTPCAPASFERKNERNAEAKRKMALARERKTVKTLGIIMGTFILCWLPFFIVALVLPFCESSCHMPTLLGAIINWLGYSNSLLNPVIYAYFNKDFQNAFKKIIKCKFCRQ
In words: Radioligand binding assay, 5-HT1A subtype. How it is done: as §1
(§2) Affinity for other serotonin receptor subtypes as well as for alpha 1 & 2 adrenergic receptors can readily be determined by modification of the above described radioligand receptor binding assay using membranes derived from cells stably expressing the desired receptor subtype including the 5-HT1A, 5-HT1B, and 5-HT1D subtypes, as well as the 5-HT2A, 5-HT2B, 5-HT2C, 5-HT4, 5-HT5, and 5-HT6 receptor subtypes. […]

For a further assay, the target named is T3, 5-HT1B (Homo sapiens, UniProt P28222).
T3 construct: expressed in transfected cells
The experiment in a line: Radioligand binding assay, 5-HT1B subtype. The protocol: as §1, §2

A further assay has as its target T4, 5-HT1D (Homo sapiens, UniProt P28221).
T4 construct: expressed in transfected cells
The experiment in a line: Radioligand binding assay, 5-HT1D subtype. How it is done:
as §1, §2

Another assay addresses T5, 5-HT2A (Homo sapiens, UniProt P28223).
T5 construct: expressed in transfected cells
In words: Radioligand binding assay, 5-HT2A subtype. How it is done:
as §1, §2

In a further assay the target is T6, 5-HT2B (Homo sapiens, UniProt P41595).
T6 construct: expressed in transfected cells
The experiment in a line: Radioligand binding assay, 5-HT2B subtype. How it is done:
as §1, §2

The next assay deals with T7, 5-HT2C (Homo sapiens, UniProt P28335).
T7 construct: expressed in transfected cells
T7 sequence (P28335 33-458): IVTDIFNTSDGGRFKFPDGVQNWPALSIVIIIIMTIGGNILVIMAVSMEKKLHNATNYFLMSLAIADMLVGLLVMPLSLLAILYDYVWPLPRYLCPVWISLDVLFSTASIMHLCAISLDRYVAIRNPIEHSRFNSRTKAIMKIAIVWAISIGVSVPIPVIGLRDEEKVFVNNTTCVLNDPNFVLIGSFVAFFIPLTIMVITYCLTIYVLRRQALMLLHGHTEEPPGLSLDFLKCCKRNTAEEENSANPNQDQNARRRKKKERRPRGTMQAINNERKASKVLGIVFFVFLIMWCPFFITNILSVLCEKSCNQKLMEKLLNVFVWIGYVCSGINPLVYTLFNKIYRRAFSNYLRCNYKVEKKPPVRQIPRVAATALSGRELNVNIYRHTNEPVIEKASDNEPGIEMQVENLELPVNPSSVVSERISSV
The experiment in a line: Radioligand binding assay, 5-HT2C subtype. How it is done:
as §1, §2

For a further assay, the target named is T8, 5-HT4 (Homo sapiens, UniProt Q13639).
T8 construct: expressed in transfected cells
In words: Radioligand binding assay, 5-HT4 subtype. The protocol: as §1, §2

Another assay deals with T9, 5-HT5 (Homo sapiens, UniProt P47898).
T9 construct: expressed in transfected cells
The experiment in a line: Radioligand binding assay, 5-HT5 subtype. How it is done:
as §1, §2

In the next assay the target is T10, 5-HT6 (Homo sapiens, UniProt P50406).
T10 construct: expressed in transfected cells
The experiment in a line: Radioligand binding assay, 5-HT6 subtype. How it is done: as §1, §2

The target of another assay is alpha 1 adrenergic. In words: Radioligand binding assay, alpha 1 adrenergic. The protocol: as §1, §2
A further assay addresses alpha 2 adrenergic. In words: Radioligand binding assay, alpha 2 adrenergic. The protocol: as §1, §2
Assay [2] concerns the target T1, 5-HT7 receptor. In words: Functional antagonist assay: measurement of cAMP formation. Type of assay: cell-based. As to conditions: 5-HT7-expressing AV-12 cells. The protocol: For cAMP functional assays, the 5-HT7-expressing cells from above are grown in 150 cm^2 flasks and processed essentially as follows. The media is aspirated from the flasks and cells are washed with 1 mL PBS. The cells are released from monolayer with enzyme free cell dissociation solution (Specialtymedia CAT#S-004-B, www.Chemicon.com) and resuspended in complete media. A sample of the cells is counted and the remainder is centrifuged as above for 3 min. The resulting cell pellet is resuspended in PBS at a concentration of 1×10^6 cells per mL and used directly in the cAMP assay as described.
The 5-HT7 receptor is functionally coupled to a G-protein as measured by the ability of serotonin and serotonergic drugs to stimulate cAMP production in CHO cells transfected with the 5-HT7 receptor. (Ruat, et al., Proceedings of the National Academy of Sciences (USA), 90:8547-8551, 1993.) Accordingly, functional receptor activity can be measured by measuring adenylate cyclase activity using a commercially available cell-based, homogeneous, time resolved fluorescence assay kit, as for example the kit produced by Cisbio-US, Inc. (Bedford, Mass.). Essentially, and using the protocol and reagents provided by the manufacturer, approximately 20,000 human 5-HT7 receptor-expressing AV-12 cells (as described above) are used with test compound dose concentrations in the range described for the binding assay. […] A cAMP standard curve is also run in every experiment. After the assay plates are read in an Envision™ instrument (Perkin-Elmer, Wellesley Mass.), the data are normalized to the standard curve and converted to percent inhibition for data analysis as described above for the receptor binding assay results. The Kb (nM) is calculated as a measure of the antagonist potency of the compound. Preferred compounds are those having percent inhibition>75%. Still other preferred compounds are those having Kb<50 nM.
(cAMP levels reflect the balance of adenylyl cyclase and phosphodiesterase activity.)

What is called Ki is a measure of affinity in units of concentration, obtained from inhibition or displacement. Read a low Ki as tighter binding. The Kb is the equilibrium dissociation constant of an antagonist, usually derived from a functional assay. Low values mean higher antagonist affinity, high ones lower antagonist affinity.

Where “and” joins values, the source holds several entries; their conditions need not be identical. Identical values can stand only once. Counter-ions that a name gives are not always drawn.

T1 sequence (P34969 whole entry): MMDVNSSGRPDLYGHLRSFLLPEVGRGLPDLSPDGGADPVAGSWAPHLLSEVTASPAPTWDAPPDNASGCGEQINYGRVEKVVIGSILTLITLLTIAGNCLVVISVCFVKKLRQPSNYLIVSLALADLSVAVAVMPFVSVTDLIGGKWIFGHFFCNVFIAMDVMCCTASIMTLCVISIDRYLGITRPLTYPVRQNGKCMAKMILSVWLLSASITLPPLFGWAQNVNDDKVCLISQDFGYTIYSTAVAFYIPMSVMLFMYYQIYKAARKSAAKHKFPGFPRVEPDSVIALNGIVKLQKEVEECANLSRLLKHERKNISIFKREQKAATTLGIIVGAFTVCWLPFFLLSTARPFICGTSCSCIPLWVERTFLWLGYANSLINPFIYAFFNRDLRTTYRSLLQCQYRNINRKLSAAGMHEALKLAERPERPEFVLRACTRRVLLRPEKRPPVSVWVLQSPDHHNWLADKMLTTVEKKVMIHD
T5 sequence (P28223 whole entry, species assumed): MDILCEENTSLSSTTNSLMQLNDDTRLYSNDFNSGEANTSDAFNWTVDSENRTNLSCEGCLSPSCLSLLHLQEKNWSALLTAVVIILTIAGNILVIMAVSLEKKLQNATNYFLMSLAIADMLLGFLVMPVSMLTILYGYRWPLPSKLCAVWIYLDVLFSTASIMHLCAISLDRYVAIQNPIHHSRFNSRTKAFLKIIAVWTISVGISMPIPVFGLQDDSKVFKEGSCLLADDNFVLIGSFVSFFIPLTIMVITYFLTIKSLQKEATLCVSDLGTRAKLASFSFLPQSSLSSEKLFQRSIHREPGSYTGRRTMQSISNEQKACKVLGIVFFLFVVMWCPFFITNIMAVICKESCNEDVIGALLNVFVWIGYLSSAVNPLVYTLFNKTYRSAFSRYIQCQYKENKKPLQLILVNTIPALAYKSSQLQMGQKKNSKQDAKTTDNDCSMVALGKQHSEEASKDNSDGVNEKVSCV
T3 sequence (P28222 whole entry, species assumed): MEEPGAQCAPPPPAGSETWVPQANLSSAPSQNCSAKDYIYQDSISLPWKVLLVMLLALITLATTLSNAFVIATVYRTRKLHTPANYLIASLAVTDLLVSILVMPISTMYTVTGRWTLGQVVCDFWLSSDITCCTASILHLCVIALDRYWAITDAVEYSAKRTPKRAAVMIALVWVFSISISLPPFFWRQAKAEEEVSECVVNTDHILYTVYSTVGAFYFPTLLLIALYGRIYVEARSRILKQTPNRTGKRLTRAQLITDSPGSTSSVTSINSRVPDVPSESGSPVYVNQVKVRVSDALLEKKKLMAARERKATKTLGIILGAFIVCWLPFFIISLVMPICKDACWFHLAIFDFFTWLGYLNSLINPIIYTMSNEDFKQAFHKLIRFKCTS
T9 sequence (P47898 whole entry, species assumed): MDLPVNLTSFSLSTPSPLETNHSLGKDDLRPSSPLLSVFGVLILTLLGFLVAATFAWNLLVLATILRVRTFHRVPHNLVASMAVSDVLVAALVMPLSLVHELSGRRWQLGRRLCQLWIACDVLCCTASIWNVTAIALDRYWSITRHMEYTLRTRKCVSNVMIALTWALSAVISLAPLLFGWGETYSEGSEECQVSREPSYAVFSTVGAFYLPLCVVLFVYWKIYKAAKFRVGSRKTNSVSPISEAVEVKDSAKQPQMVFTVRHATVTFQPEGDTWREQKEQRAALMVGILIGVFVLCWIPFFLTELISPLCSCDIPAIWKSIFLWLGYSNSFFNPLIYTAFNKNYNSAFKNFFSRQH
T6 sequence (P41595 whole entry, species assumed): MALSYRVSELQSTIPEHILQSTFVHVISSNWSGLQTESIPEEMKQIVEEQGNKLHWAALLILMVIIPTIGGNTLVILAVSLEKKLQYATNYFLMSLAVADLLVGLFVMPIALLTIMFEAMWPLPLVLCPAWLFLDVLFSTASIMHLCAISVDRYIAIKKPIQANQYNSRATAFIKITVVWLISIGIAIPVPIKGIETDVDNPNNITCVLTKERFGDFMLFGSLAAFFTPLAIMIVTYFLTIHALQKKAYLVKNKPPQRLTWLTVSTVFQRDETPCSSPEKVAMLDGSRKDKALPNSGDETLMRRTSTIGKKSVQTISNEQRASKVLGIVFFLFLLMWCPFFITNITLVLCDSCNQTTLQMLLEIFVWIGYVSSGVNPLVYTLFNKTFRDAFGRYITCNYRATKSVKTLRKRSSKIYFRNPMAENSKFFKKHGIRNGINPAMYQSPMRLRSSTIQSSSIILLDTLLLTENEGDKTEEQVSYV
T8 sequence (Q13639 whole entry, species assumed): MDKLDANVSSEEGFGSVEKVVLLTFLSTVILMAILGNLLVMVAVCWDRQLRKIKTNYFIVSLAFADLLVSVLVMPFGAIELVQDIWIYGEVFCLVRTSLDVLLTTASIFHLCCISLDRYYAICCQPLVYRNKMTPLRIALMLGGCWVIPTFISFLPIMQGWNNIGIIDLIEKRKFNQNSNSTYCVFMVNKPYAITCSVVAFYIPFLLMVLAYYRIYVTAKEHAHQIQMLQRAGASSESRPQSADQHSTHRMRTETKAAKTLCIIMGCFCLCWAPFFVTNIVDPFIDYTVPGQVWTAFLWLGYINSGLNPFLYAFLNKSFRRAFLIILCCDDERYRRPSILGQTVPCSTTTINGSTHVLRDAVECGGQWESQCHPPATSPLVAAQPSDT
T4 sequence (P28221 whole entry, species assumed): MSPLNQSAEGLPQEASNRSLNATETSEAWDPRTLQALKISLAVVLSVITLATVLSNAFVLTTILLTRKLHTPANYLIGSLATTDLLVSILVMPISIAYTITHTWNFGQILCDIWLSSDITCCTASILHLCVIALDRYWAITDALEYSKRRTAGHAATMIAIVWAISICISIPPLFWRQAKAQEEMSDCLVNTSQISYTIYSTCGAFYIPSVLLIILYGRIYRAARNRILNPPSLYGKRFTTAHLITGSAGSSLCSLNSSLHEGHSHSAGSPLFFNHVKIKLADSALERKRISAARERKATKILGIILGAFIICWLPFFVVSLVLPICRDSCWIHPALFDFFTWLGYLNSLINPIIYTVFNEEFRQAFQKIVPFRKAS
T10 sequence (P50406 whole entry, species assumed): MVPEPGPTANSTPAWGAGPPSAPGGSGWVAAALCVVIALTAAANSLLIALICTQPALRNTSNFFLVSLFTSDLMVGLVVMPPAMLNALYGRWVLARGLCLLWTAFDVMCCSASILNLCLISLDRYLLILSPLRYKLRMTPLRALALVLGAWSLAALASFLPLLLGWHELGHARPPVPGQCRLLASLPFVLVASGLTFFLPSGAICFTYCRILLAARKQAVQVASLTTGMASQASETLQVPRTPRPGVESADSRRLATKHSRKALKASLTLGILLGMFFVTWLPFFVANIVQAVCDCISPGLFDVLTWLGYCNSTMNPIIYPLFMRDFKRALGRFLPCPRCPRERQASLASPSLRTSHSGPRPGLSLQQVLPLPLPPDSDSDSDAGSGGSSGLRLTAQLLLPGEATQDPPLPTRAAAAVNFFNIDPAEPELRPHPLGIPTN

In the case of `CN(CCN1CCN(c2nccnc2-c2ccc(F)cc2)CC1)S(=O)(=O)c1cn(C)cn1` [Example 17, 1-Methyl-1H-imidazole-4-sulfonic acid {2-[3′-(4-fluoro-phenyl)-2,3,5,6-tetrahydro-[1,2′]bipyrazinyl-4-yl]-ethyl}-methyl-amide hydrochloride], the Ki on 5-HT7 receptor [1] was ~33.5 nM and 33.5 nM; on 5-HT1A, 1500 nM; at 5-HT1B it was > 3580 nM; on 5-HT1D, > 2320 nM; on 5-HT2A, > 7470 nM; at 5-HT2B it was > 6810 nM. Besides, the Ki at 5-HT2C was > 8360 nM; at 5-HT4 it was > 6310 nM; on 5-HT5 it was > 6710 nM; at 5-HT6 it was > 5830 nM; on alpha 1 adrenergic, > 1770 nM; at alpha 2 adrenergic, > 2430 nM.
Regarding `CN(CCN1CCN(c2nccnc2-c2ccc(F)cc2)CC1)S(=O)(=O)c1ccc(F)cc1.Cl` [Example 4, 4-Fluoro-N-{2-[3′-(4-fluoro-phenyl)-2,3,5,6-tetrahydro-[1,2′]bipyrazinyl-4-yl]-ethyl}-N-methyl-benzenesulfonamide hydrochloride], on 5-HT7 receptor [2], the antagonist character entry is “full antagonists” and the inhibition entry is reported as “about 128%”. Also, the antagonist equilibrium constant (Kb) on 5-HT7 receptor [2] (antagonist potency) was ~24 nM.
